Experimental data published in US20230293521A1, “METHODS FOR SCREENING NOVEL CORONAVIRUS ANTIVIRALS AND METHODS OF USING ANTIVIRALS FOR THE TREATMENT OF CORONAVIRUS INFECTIONS” (priority 2020, published 2023).
Where two headings read alike, the source gives them in different places.

Tests used:
SARS-CoV-2 [1] = test: microbe, parasite or virus in culture; type: cell-based
SARS-CoV-2 [2] = test: Time of addition studies, impedance assay in VeroE6 cells; type: cell-based; conditions: for inhibition of SARS-CoV-2 replication, single treatment 1 hour prior to infection, compound removed prior to infection: VPS34 inhibitors at 5 µM; for inhibition of SARS-CoV-2 replication, compound added up to 4 hpi: dosing at 2 hpi or 4 hpi, compound maintained
Vero E6 cells = conditions: for cytotoxicity (rapid decrease in resistance between 1 and 20 hpi): at 50 µM and 16.67 µM
[3] = system: SARS-CoV-2 replication centers; test: Confocal immunofluorescence of SARS-CoV-2 N and dsRNA replication centers in Calu-3 cells; type: cell-based; conditions: for distribution of SARS-CoV-2 N and dsRNA (replication center formation): Calu-3, pre-treated, MOI 3, fixed at 24 h.p.i.; for IC90: read-out: approximate IC90 (concentration used for pre-treatment)
[4] = system: SARS-CoV-2 genomic RNA, subgenomic N RNA and NSP14 RNA; type: cell-based; conditions: for viral RNA levels: Calu-3, both MOI 0.01 and 1; for reduction in RNA synthesis compared with reduction in viral titers: Calu-3, 24 hpi
SARS-CoV-2 [5] = test: microbe, parasite or virus in culture; type: cell-based; conditions: for IC50: Calu-3, pre-treated 1 hour, MOI 0.01, supernatants at 48 hpi
VPS34 = type: cell-based; conditions: Huh7, 24 hours treatment; VPS34-IN1 2 µM, PIK-III, SAR405, Compound 19 5 µM, Orlistat 200 µM
[6] = Severe acute respiratory syndrome coronavirus 2, Calu-3

Q: With `C[C@@H]1COCCN1c1cc(=O)n2c(n1)N(Cc1cncc(Cl)c1)[C@H](C(F)(F)F)CC2` [SAR405] as the compound, how does the IC50 (SARS-CoV-2 [1]; [6]) read?
A: 0.376 µM

Q: How did the “inhibition of SARS-CoV-2 replication, single treatment 1 hour prior to infection, compound removed prior to infection” value (SARS-CoV-2 [2]) turn out when `CCC/C=C/C/C=C/C=C/C=N/NN=O` [Triacsin C] was run?
A: minimal efficacy

Q: And the “inhibition of SARS-CoV-2 replication, compound added up to 4 hpi” value (SARS-CoV-2 [2])?
A: remained inhibitory

Q: What about the “early cytotoxic effects (1-20 hours post-treatment)” value (Vero E6 cells; even at the highest concentrations of 50 µM and 500 µM, respectively, Vero E6) of the same compound?
A: neither Orlistat nor Triacsin C induced early cytotoxic effects

Q: And the “distribution of SARS-CoV-2 N and dsRNA (replication center formation)” value (“distribution of SARS-CoV-2 N and dsRNA” for short) [3]?
A: fewer but larger foci positive for both markers

Q: What about the IC90 ([3]; Calu-3) of the same compound?
A: ~50 µM

Q: What about the IC50 (SARS-CoV-2 [1]) of the same compound?
A: 0.04 µM

Q: What about the “viral RNA levels” value [4] of the same compound?
A: reduced RNA levels

Q: What does the source list for `CC(C)(O)CNc1ncc(-c2ccnc(Nc3ccncc3)n2)c(CC2CC2)n1` [VPS34-IN1]?
A: inhibition of SARS-CoV-2 replication, single treatment 1 hour prior to infection, compound removed prior to infection (SARS-CoV-2 [2]): inhibited SARS-CoV-2 replication; inhibition of SARS-CoV-2 replication, compound added up to 4 hpi (SARS-CoV-2 [2]): inhibition could be observed; toxicity at the remaining concentrations (Vero E6 cells): no toxicity was observed; cytotoxicity (rapid decrease in resistance between 1 and 20 hpi) (Vero E6 cells; Vero E6): induced rapid cytotoxicity; distribution of SARS-CoV-2 N and dsRNA (replication center formation) [3]: loss of these distinct puncta and dispersion of dsRNA and SARS-CoV-2 N; IC90 [3, 6]: ~5 µM; IC50 (SARS-CoV-2 [1]; [6]): 0.55 µM; viral RNA levels [4]: reduced RNA levels

Q: Which IC50 (SARS-CoV-2 [5]) does the source give for `C=C1C(=O)O[C@H](CCCCCCCC)[C@H]1C(=O)O` [C75, tetrahydro-4-methylene-2R-octyl-5-oxo-3S-furancarboxylic acid] here?
A: 22.8 µM

Q: Which results are given for `CCCCCCCCCCC[C@@H](C[C@@H]1OC(=O)[C@H]1CCCCCC)OC(=O)[C@H](CC(C)C)NC=O` [Orlistat]?
A: inhibition of SARS-CoV-2 replication, single treatment 1 hour prior to infection, compound removed prior to infection (SARS-CoV-2 [2]): minimal efficacy; inhibition of SARS-CoV-2 replication, compound added up to 4 hpi (SARS-CoV-2 [2]): remained inhibitory; early cytotoxic effects (1-20 hours post-treatment) (Vero E6 cells): neither Orlistat nor Triacsin C induced early cytotoxic effects; distribution of SARS-CoV-2 N and dsRNA (replication center formation) [3]: loss of these distinct puncta and dispersion of dsRNA and SARS-CoV-2 N; IC90 [3, 6]: ~500 µM; IC50 (SARS-CoV-2 [1]; [6]): 21.2 µM; viral RNA levels [4]: reduced RNA levels; effect on GFP-2xFYVE localization to endosomes (VPS34): did not affect GFP-2xFYVE localization

Q: Which results are given for `Nc1ncc(-c2ccnc(Nc3ccncc3)n2)c(CC2CC2)n1` [PIK-III]?
A: inhibition of SARS-CoV-2 replication, single treatment 1 hour prior to infection, compound removed prior to infection (SARS-CoV-2 [2]): inhibited SARS-CoV-2 replication; inhibition of SARS-CoV-2 replication, compound added up to 4 hpi (SARS-CoV-2 [2]): inhibition could be observed; toxicity at the remaining concentrations (Vero E6 cells): no toxicity was observed; cytotoxicity (rapid decrease in resistance between 1 and 20 hpi) (Vero E6 cells; Vero E6): induced rapid cytotoxicity; IC90 [3, 6]: ~5 µM; IC50 (SARS-CoV-2 [1]; [6]): 0.12 µM

Q: For `CCOC(=O)[C@@]1(CCCCCCOc2ccc(Cl)cc2)CO1` [Etomoxir], which “inhibition of SARS-CoV-2” value (SARS-CoV-2 [5]; Calu-3, MOI 0.01, 48 hpi) is on record?
A: Neither compound showed any inhibition

Q: What does the source list for `O=C(Nc1ccccc1)Nc1ccc(-c2ccc(C(=O)[C@@H]3CCC[C@H]3C(=O)O)cc2)cc1` [A922500]?
A: distribution of SARS-CoV-2 N and dsRNA (replication center formation) [3]: loss of these distinct puncta and dispersion of dsRNA and SARS-CoV-2 N; IC50 (SARS-CoV-2 [5]): 4.02 µM; reduction in RNA synthesis compared with reduction in viral titers [4]: significantly less substantial than the reduction in viral titers

Q: For `CCCCCCCCCCCCCCOc1ccc(C(=O)O)o1` [TOFA, 5-(Tetradecyloxy)-2-furoic acid], which “distribution of SARS-CoV-2 N and dsRNA” value [3] is on record?
A: loss of these distinct puncta and dispersion of dsRNA and SARS-CoV-2 N

Q: And the IC50 (SARS-CoV-2 [5]; Severe acute respiratory syndrome coronavirus 2)?
A: 1.34 µM

Q: And the “reduction in RNA synthesis compared with reduction in viral titers” value [4]?
A: significantly less substantial than the reduction in viral titers

Q: What does the source list for `Cc1nc(NC(=O)N2CCC[C@H]2C(N)=O)sc1-c1ccnc(C(C)(C)C(F)(F)F)c1` [BYL719]?
A: decrease in viral titers (SARS-CoV-2 [1]): 1 log; inhibition of SARS-CoV-2 replication (SARS-CoV-2 [1]): little inhibition was detected

Q: For `CCCCCCCCCCCCCCC(Br)C(=O)O` (stereo not drawn) [2-bromopalmitate], which “distribution of SARS-CoV-2 N and dsRNA” value [3] is on record?
A: fewer but larger foci positive for both markers

Q: And the “concentrations at which infectious virus production was inhibited” value (SARS-CoV-2 [5]; Calu-3, MOI 0.01, 48 hpi)?
A: greater than 10 µM

Q: And the IC50 (SARS-CoV-2 [5])?
A: 23 µM

Q: And the “viral RNA levels” value [4]?
A: reduced RNA levels

Q: How did the “inhibition of SARS-CoV-2” value (SARS-CoV-2 [5]; Calu-3, MOI 0.01, 48 hpi) turn out when `COc1ccc(CN2CCNCC2)c(OC)c1OC` [Trimetazidine] was run?
A: Neither compound showed any inhibition
